Measurements: ChEMBL document CHEMBL1201862, “PubChem BioAssay data set” (2004)
Calls of active or inactive are those of the source.

Legend:
Tumor necrosis factor = Tumor necrosis factor (Homo sapiens, UniProt P01375); assay: TNFa-triggered NF-kB activation inhibitors, SAR follow-up, cell-based, revised (AID 2337); format: functional
[1] = target: Nucleotide-binding oligomerization domain-containing protein 2 (Homo sapiens, UniProt Q9HC29); assay: PubChem AID 2334; format: functional
HEK293 = assay: cells; details: Homo sapiens;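 further: cells exposed to compound for 14 hours overnight before viability readout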
[2] = target: T1, Nucleotide-binding oligomerization domain-containing protein 1 (Homo sapiens, UniProt Q9Y239); assay: NOD1 signaling inhibitors, SAR follow-up, revised (AID 2333); format: functional
T1 sequence (Q9Y239 whole entry): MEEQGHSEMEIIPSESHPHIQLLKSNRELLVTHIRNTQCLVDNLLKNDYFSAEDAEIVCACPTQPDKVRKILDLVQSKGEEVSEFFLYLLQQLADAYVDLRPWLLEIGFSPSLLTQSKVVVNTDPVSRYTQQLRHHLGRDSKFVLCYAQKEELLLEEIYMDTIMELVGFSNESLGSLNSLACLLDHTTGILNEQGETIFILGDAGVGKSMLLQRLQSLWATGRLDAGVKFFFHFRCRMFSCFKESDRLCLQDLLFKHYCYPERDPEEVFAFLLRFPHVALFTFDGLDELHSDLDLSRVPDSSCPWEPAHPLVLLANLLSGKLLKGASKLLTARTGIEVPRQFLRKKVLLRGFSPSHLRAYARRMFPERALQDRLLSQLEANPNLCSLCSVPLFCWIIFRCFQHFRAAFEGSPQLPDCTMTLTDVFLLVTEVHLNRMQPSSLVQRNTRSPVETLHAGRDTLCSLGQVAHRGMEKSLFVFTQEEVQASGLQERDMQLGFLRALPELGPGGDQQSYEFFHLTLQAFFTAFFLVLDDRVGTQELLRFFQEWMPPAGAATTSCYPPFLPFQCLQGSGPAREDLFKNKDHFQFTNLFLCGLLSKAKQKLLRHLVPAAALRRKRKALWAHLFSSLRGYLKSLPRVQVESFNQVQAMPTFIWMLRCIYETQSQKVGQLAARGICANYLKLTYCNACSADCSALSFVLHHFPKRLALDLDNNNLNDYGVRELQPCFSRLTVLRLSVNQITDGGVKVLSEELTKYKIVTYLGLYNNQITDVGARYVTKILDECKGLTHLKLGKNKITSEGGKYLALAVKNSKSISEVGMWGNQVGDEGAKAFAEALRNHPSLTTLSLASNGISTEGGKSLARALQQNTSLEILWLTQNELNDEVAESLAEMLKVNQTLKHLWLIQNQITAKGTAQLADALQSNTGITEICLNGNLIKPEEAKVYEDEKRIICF

Cytochrome P450 2C19 = Cytochrome P450 2C19 (Homo sapiens, UniProt P33261); assay: Cytochrome panel assay with activity outcomes. Panel member name: p450-cyp2c19 Compounds with AC50 equal or less than 10 uM are considered active; format: functional; details: read-out: AC50
Cytochrome P450 1A2 = target: T2, Cytochrome P450 1A2 (Homo sapiens, UniProt P05177);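 further: PubChem cytochrome P450 panel assay, CYP1A2 panel member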
T2 sequence (P05177 whole entry): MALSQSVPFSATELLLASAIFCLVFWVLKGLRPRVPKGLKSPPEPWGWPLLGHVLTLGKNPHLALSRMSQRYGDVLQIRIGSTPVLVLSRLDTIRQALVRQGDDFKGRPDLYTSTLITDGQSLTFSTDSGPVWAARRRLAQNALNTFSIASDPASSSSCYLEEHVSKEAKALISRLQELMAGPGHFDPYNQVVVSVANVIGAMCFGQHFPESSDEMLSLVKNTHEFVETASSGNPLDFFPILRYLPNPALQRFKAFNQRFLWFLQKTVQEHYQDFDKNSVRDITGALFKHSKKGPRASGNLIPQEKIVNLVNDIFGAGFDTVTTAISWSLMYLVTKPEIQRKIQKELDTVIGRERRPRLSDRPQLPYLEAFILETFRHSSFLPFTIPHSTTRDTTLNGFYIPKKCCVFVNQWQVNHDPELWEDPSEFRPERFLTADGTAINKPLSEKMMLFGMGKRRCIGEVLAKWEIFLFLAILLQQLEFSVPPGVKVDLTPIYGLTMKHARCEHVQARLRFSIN

Cytochrome P450 2C9 = Cytochrome P450 2C9 (Homo sapiens, UniProt P11712)
Cytochrome P450 2D6 = Cytochrome P450 2D6 (Homo sapiens, UniProt P10635);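 further: CYP2D6 member of a cytochrome P450 panel assay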
[3] = target: T3, Carboxy-terminal domain RNA polymerase II polypeptide A small phosphatase 1 (Homo sapiens, UniProt Q9GZU7); assay: inhibitors of CTDSP1, concentration-response testing, biochemical assay, absorbance-based, actives from ultra-high-throughput screening (AID 540297); format: functional
T3 sequence (Q9GZU7 whole entry): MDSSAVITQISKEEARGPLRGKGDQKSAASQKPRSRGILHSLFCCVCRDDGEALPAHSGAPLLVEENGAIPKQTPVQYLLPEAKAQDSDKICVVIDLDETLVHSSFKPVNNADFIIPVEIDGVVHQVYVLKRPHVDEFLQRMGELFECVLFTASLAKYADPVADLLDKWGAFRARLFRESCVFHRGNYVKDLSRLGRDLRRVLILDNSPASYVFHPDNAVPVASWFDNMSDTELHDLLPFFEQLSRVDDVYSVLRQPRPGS

[4] = target: 5-hydroxytryptamine receptor 5A (Homo sapiens, UniProt P47898); assay: Counterscreen for agonists of OPRM1-OPRD1 heterodimerization: luminescence-based cell-based high throughput dose response assay to identify agonists of 5-hydroxytryptamine (serotonin) 5A receptor (HTR5A). [Related pubchem assays (depositor defined):AID504326, AID504355, AID504692, AID504904, AID504905]; format: functional
[5] = target: Delta-type opioid receptor (Homo sapiens, UniProt P41143); assay: Counterscreen for agonists of heterodimerization of the mu 1 (OPRM1) and delta 1 (OPRD1) opioid receptors: Luminescence-based cell-based high throughput dose response assay to identify agonists of OPRD1 homodimerization. [Related pubchem assays (depositor defined):AID504326, AID504355, AID504692, AID504904, AID504905]; format: functional
Mu-type opioid receptor = Mu-type opioid receptor (Homo sapiens, UniProt P35372); assay: Counterscreen for agonists of heterodimerization of the mu 1 (OPRM1) and delta 1 (OPRD1) opioid receptors: Luminescence-based cell-based high throughput dose response assay to identify agonists of OPRM1 homodimerization.; format: functional;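 further: U2OS cells expressing OPRM1 and beta-arrestin as split beta-galactosidase partners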
[6] = Luminescence Cell-Based Dose Response HTS to Identify Activators of Luciferase Translation or Activity in H4 […] Cells. [Related pubchem assays: 1829 (Project Summary), 1814 (Primary HTS)]; format: functional
H4 = assay: Luminescence Cell-Based Dose Response HTS to Identify Activators of 5'UTR Stem-Loop Driven Prion Protein mRNA Translation in H4 Neuroglioblastoma Cells. [Related pubchem assays: 1829 (Project Summary), 1814 (Primary HTS)]; format: functional; details: Homo sapiens
[7] = Luminescence Cell-Based Dose Confirmation HTS to Identify Activators of 5'UTR Stem-Loop Driven Alpha-Synuclein mRNA Translation in H4 Neuroglioblastoma Cells. [Related pubchem assays: 1829 (Project Summary), 1814 (Primary HTS)]; format: functional
HeLa = assay: HeLa cell cytotoxicity, dose response, cytotoxicity control for MITF activator project, CellTiter-Glo luminescence, cherry-pick samples (AID 540259); format: functional, cell-based; details: Homo sapiens
INS1 = assay: beta cell apoptosis inhibitors, cytokine rescue, dose response, luminescence, retest (AID 449756); format: functional, cell-based; details: Rattus norvegicus;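 further: cell death triggered by IL-1 beta plus TNF-alpha plus IFN-gamma mixture; protective hits raise ATP signal compared with cytokine alone wells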
CHO = assay: cytotoxicity in TLR9-MyD88 CHO cells, dose response, cytotoxicity control for TLR9-MyD88 binding inhibitor project, cell-based, luminescence (AID 588339); format: functional, hamster; details: Cricetulus griseus;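 further: CHO cells stably coexpressing TLR9 and MyD88 fusions from primary screen; compound exposure lasted 48 hours before viability readout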
Beta Lactamase = Beta Lactamase (Pseudomonas aeruginosa, UniProt Q932Y6); assay: beta-lactamase reporter inhibitor potency, dose response, artefact control for TLR9-MyD88 binding inhibitor project, BLA reporter cells, FRET fluorescence (AID 588341); format: cell-based;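 further: cell based assay in CHO-K1 cells stably expressing beta-lactamase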
Escherichia coli [8] = assay: microbe, parasite or virus in culture
Escherichia coli [9] = assay: microbe, parasite or virus in culture; remark: listed apart in the source

Chain of Cytochrome P450 2D6 (P10635 whole entry, the tested form may be a part): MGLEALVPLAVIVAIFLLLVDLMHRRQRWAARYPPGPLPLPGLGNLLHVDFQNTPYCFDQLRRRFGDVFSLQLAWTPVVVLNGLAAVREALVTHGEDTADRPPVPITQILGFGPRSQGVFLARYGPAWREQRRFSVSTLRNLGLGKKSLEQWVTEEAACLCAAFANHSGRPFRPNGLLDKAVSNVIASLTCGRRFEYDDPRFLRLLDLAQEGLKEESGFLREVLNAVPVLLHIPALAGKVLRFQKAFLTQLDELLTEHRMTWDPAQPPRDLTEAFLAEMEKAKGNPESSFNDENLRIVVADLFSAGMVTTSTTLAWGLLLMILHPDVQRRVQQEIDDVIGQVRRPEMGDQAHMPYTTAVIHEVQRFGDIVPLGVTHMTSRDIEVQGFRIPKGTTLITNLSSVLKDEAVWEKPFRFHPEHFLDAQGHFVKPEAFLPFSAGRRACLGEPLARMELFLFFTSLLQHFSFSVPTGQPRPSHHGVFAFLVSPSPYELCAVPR
Chain of Delta-type opioid receptor (P41143 whole entry): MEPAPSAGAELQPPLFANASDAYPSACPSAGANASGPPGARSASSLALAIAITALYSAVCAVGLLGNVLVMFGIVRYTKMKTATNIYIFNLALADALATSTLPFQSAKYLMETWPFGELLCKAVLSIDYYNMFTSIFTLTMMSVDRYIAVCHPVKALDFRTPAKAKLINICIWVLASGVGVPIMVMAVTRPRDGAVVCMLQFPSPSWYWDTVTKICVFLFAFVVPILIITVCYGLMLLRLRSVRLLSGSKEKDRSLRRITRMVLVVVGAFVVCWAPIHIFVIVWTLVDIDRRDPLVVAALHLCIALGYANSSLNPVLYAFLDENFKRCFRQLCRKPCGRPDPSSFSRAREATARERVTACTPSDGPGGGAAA
Chain of Beta Lactamase (Q932Y6 whole entry): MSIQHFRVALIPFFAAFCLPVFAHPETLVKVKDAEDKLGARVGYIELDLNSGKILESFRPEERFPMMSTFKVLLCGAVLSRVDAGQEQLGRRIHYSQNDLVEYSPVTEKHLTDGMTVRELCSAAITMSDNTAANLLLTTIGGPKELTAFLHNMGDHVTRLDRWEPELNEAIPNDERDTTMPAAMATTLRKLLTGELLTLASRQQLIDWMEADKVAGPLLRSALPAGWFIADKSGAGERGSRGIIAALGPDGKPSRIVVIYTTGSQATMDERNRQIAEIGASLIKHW
Chain of Cytochrome P450 2C9 (P11712 whole entry): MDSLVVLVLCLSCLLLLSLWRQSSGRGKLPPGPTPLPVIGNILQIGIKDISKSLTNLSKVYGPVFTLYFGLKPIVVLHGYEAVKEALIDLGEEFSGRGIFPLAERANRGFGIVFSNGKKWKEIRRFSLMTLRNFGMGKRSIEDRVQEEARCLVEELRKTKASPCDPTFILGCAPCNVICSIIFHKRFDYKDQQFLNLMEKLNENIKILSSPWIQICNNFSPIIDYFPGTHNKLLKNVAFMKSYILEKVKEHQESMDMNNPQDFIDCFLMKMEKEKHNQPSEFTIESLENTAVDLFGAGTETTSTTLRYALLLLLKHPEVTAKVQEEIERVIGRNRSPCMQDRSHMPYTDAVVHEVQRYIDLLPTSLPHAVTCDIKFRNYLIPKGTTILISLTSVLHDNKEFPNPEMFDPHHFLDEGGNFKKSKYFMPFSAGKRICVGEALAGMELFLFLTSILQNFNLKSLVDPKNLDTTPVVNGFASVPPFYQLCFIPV
Chain of Cytochrome P450 2C19 (P33261 whole entry): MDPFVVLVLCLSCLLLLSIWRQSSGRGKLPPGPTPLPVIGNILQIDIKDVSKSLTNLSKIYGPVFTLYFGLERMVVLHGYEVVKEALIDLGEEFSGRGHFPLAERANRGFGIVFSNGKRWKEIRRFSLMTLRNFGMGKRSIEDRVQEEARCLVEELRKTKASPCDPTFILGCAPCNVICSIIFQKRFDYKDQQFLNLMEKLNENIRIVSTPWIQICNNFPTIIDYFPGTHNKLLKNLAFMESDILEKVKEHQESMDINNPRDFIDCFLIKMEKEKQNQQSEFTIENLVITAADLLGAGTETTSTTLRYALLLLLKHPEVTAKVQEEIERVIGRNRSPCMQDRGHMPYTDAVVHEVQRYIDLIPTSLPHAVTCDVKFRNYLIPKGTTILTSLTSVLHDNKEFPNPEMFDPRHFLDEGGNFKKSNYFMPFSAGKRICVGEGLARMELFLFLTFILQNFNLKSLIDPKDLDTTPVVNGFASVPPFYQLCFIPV
Chain of Tumor necrosis factor (P01375 whole entry, the tested form may be a part): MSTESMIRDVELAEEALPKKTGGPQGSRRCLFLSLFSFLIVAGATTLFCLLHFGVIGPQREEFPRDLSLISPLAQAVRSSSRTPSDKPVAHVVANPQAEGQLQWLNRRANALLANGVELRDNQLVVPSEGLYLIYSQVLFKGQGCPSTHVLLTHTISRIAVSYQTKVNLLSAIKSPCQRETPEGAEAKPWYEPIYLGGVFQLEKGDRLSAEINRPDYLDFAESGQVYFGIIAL
Chain of Nucleotide-binding oligomerization domain-containing protein 2 (Q9HC29 whole entry, the tested form may be a part): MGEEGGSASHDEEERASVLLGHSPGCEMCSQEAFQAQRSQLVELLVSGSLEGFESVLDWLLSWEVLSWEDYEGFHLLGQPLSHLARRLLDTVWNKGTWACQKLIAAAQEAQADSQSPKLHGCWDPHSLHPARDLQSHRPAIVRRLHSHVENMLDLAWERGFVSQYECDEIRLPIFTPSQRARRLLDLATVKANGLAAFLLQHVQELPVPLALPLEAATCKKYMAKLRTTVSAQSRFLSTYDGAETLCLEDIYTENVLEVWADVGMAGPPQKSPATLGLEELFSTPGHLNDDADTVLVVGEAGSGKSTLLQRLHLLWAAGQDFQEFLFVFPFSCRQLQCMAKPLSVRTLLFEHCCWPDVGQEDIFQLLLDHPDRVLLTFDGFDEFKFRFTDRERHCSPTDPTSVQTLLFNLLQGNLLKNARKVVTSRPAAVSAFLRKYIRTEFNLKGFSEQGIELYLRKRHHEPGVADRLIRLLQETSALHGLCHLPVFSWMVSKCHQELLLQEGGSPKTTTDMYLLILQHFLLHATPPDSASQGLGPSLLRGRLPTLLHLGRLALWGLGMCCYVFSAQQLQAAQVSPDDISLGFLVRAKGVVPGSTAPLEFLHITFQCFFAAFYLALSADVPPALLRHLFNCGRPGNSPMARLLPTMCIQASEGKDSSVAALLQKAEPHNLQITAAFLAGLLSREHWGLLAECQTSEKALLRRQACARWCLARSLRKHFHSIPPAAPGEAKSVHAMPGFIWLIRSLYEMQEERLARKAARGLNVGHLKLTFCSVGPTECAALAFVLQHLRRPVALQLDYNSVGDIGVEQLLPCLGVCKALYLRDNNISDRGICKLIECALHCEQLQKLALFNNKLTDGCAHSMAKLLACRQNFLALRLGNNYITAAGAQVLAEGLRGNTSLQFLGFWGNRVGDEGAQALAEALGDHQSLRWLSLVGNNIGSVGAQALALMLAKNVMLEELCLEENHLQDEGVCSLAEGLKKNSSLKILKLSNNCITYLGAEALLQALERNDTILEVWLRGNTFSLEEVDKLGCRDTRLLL
Chain of 5-hydroxytryptamine receptor 5A (P47898 whole entry): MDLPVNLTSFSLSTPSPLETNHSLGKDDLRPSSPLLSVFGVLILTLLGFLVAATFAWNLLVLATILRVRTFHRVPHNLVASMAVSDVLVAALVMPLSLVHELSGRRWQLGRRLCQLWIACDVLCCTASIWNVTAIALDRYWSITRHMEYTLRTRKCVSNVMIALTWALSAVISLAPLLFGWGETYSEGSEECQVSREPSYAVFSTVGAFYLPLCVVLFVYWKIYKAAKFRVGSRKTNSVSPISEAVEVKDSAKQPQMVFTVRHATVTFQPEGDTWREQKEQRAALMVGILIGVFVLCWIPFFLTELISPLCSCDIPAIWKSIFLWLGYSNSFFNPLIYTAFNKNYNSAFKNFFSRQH
Chain of Mu-type opioid receptor (P35372 whole entry): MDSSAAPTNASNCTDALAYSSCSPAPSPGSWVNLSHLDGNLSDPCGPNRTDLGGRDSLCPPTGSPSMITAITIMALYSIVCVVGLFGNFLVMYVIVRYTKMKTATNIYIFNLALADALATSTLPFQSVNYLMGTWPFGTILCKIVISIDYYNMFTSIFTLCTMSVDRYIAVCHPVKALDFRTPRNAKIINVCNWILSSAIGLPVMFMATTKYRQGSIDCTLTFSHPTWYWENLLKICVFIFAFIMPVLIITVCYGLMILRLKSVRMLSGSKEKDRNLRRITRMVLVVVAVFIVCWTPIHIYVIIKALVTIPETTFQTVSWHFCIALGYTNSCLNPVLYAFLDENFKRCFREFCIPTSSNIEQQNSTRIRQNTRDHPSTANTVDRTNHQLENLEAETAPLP

CC(/C=C/c1ccccc1)=NNC(=O)c1cccc(Br)c1
IC50 (Tumor necrosis factor): > 20 µM (inactive) | IC50 [1]: > 20 µM (inactive) | IC50 (HEK293): > 20 µM (inactive) | IC50 [2]: > 20 µM (inactive)

Cc1scc(C(=O)NN=C(S)NCC2CCCO2)c1C (centres undefined)
AC50 (Cytochrome P450 2C19): 6.31 µM (inconclusive) | AC50 (Cytochrome P450 1A2): 11.2 µM (inconclusive) | AC50 (Cytochrome P450 2C9): inconclusive | AC50 (Cytochrome P450 2D6): inconclusive

Cc1cc(Cl)ccc1OCC(=O)N[C@@H](Cc1ccccc1)c1nc2ccccc2[nH]1
IC50 [3]: 21.5 µM (active) | EC50 [4]: > 92.5 µM (inactive) | EC50 [5]: > 92.5 µM (inactive) | EC50 (Mu-type opioid receptor): > 92.5 µM (inactive)

Cc1ccc(-n2nnc(-c3ccnc4ccccc34)n2)cc1
EC50 [6]: 0.745 µM (active) | EC50 (H4): 14.5 µM (active) | EC50 [7]: 0.371 µM (active) | AC50 (HeLa): 45.4 µM (active)

CC(C)CNC(=O)COC(=O)c1c2c(nc3ccccc13)/C(=C/c1cccs1)CC2
AC50 (INS1): 43.8 µM (active) | IC50 (CHO): > 49.7 µM (inactive) | IC50 (Beta Lactamase): 3.52 µM (active)

O=C(COc1ccc2c3c(c(=O)oc2c1)CCCC3)NCc1ccncc1
AC50 (Escherichia coli [8]): 38.2 µM (active)

CC(C)(/N=N\C(C)(C)C(=N)N)C(=N)N.Cl
AC50 (Cytochrome P450 2D6): inconclusive

c1ccc(-c2ccc3sccc3n2)cc1
AC50 (HeLa): 79 µM (active)

C[C@H](NC(=O)c1[nH]cnc1C(=O)NCC(=O)OC(C)(C)C)c1ccccc1
AC50 (Escherichia coli [8]): 52.9 µM (active) | AC50 (Escherichia coli [9]): 46.2 µM (active)
